Series [1] is classed as physicochemical. The note with it: pH 0.
The conditions of series [2]: pH=6.
A short description of a further series: physchem. The note with it: pH 6.

Structures are written as SMILES. “And” between values parts separate entries of the source, which are not always exact repeats. Equal values may be shown once.

Results on two compounds are retold here after patent publication US20030065015A1 (priority 2001, published 2003).

In the case of `CN(C)C(=O)Oc1ccc[n+](C)c1.[Br-]` [Pyridostigmine Bromide, 3-dimethylaminocarbonyloxy-N-methylpyridinium bromide], the Ko/a in series [1] was 1.9 × 10^−3 and 2.3 × 10^−2 and 2.0 × 10^−2. For orientation: logD means lipophilicity at a set pH, counting ionised and neutral species. A high value points to a more lipophilic compound. As to `C[n+]1ccccc1/C=N/O` [2-PAM chloride, 2-[(hydroxyimino)methyl]-1-methylpyrdinium chloride], the partition coefficient in series [2] stood at 0.79. The logD in “physchem” is -3.12.
